In this assay the target is BRAF^V600E protein (Homo sapiens, UniProt P15056, V600E). Briefly: HiBiT cellular BRAF V600E degradation assay. It counts as cell-based. The note with it: 24 h incubation; for DC50: A375.10 cells (HiBiT tag knocked in at N-terminal of BRAF V600E), concentration at which 50% of total cellular BRAF V600E is degraded; for Emax: read-out: HiBit 24 h Emax.
The mark [1] stands for this setting: A375.10 cells, Emax = amount of residual protein remaining in the cell after compound treatment.

Chain of BRAF^V600E protein (P15056 whole entry V600E): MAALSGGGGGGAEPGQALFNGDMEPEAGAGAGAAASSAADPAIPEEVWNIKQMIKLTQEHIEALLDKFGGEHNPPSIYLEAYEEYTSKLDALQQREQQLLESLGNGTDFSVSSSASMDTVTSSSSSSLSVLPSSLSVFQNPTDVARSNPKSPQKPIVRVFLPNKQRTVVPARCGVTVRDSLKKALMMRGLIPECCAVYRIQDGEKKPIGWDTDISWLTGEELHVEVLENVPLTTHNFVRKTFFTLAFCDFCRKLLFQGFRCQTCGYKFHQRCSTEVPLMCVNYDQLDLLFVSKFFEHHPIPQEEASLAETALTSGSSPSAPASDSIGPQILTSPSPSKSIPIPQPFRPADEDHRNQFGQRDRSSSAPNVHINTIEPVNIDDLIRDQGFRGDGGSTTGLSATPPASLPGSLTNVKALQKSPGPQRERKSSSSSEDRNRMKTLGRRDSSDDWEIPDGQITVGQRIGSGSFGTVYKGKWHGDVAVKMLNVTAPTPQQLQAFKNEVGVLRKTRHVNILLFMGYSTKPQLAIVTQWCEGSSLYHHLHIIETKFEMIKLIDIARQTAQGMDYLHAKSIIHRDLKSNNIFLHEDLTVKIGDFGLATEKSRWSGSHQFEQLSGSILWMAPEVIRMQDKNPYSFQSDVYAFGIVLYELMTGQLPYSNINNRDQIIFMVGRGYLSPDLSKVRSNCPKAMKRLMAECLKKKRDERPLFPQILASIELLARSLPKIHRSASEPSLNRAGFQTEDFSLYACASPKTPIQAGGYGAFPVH

In general, DC50 refers to the concentration at which degradation of the target reaches its halfway point. Read a high DC50 as degradation only at high concentration. In general, Emax refers to the size of the effect at its maximum, as opposed to the concentration needed. `CCN(C)S(=O)(=O)Nc1ccc(F)c(C(=O)c2c[nH]c3ncc(-c4cnc(N5CCN(C(=O)CC6(O)CCN(c7ccc(NC8CCC(=O)NC8=O)cc7F)CC6)CC5)c(S(C)(=O)=O)c4)cc23)c1F` (stereo not shown) [Example 211, 5-[6-[4-[2-[1-[4-[(2,6-dioxo-3-piperidyl)amino]-2-fluoro-phenyl]-4-hydroxy-4-piperidyl]acetyl]piperazin-1-yl]-5-methylsulfonyl-3-pyridyl]-3-[3-[[ethyl(methyl)sulfamoyl]amino]-2,6-difluoro-benzoyl]-1H-pyrrolo[2,3-b]pyridine] returned a DC50 of 11.3 nM. Also, the maximal effect (Emax) under setting [1] turned out to be 9.3%.
As for `CCN(C)S(=O)(=O)Nc1ccc(F)c(C(=O)c2c[nH]c3ncc(-c4cnc(N5CCC(C(=O)N6CCC(c7ccc(NC8CCC(=O)NC8=O)cc7)CC6)CC5)nc4)cc23)c1F` (stereo not shown) [Example A94, 5-[2-[4-[4-[4-[(2,6-Dioxopiperidin-3-yl)amino]phenyl]piperidine-1-carbonyl]piperidin-1-yl]pyrimidin-5-yl]-3-[3-[[ethyl(methyl)sulfamoyl]amino]-2,6-difluorobenzoyl]-1H-pyrrolo[2,3-b]pyridine], half-maximal degradation (DC50) was put at 13 nM. In addition, the “HiBit 24 h Emax” value under setting [1] worked out at 8%.
In turn, `CCN(C)S(=O)(=O)Nc1ccc(F)c(C(=O)c2c[nH]c3ncc(-c4ccc(C5=CCN(C(=O)CC6CCN(c7ccc(NC8CCC(=O)NC8=O)cc7)CC6)CC5)cc4)cc23)c1F` (stereo not shown) [Example 92, 5-[4-[1-[2-[1-[4-[(2,6-dioxo-3-piperidyl)amino]phenyl]-4-piperidyl]acetyl]-3,6-dihydro-2H-pyridin-4-yl]phenyl]-3-[3-[[ethyl(methyl)sulfamoyl]amino]-2,6-difluoro-benzoyl]-1H-pyrrolo[2,3-b]pyridine] came in with a DC50 of 22.9 nM. The Emax under setting [1] came to 4.78%.
In turn, `CCN(C)S(=O)(=O)Nc1ccc(F)c(C(=O)c2c[nH]c3ncc(-c4cnc(N5CCC(n6cc7c(n6)CCN(c6ccc(NC8CCC(=O)NC8=O)cc6)C7)CC5)nc4)cc23)c1F` (stereo not shown) [Example 152, 5-[4-[(2,6-dioxo-3-piperidyl)amino]phenyl]-2-[1-[5-[3-[3-[[ethyl(methyl)sulfamoyl]amino]-2,6-difluoro-benzoyl]-1H-pyrrolo[2,3-b]pyridin-5-yl]pyrimidin-2-yl]-4-piperidyl]-6,7-dihydro-4H-pyrazolo[4,3-c]pyridine] returned a 50% degradation concentration (DC50) of 16.6 nM. In addition, the Emax under setting [1] is 11.9%.
The like results for `CCN(C)S(=O)(=O)Nc1ccc(F)c(C(=O)c2c[nH]c3ncc(-c4cnc(N5CCC(CC(=O)N6CCC(c7ccc(N8CCC(=O)NC8=O)cc7)CC6)CC5)nc4)cc23)c1F` [Example A113, 5-[2-[4-[2-[4-[4-(2,4-Dioxo-1,3-diazinan-1-yl)phenyl]piperidin-1-yl]-2-oxoethyl]piperidin-1-yl]pyrimidin-5-yl]-3-[3-[[ethyl(methyl)sulfamoyl]amino]-2,6-difluorobenzoyl]-1H-pyrrolo[2,3-b]pyridine] were, in that order, 53 nM and 33%.
The compound `CCN(C)S(=O)(=O)Nc1ccc(F)c(C(=O)c2c[nH]c3ncc(-c4ccc(N5CCN(C(=O)CC6(O)CCN(c7ccc(N[C@H]8CCC(=O)NC8=O)cc7F)CC6)CC5)nc4)cc23)c1F` [Example 176, 5-[6-[4-[2-[1-[4-[[(3S)-2,6-dioxo-3-piperidyl]amino]-2-fluoro-phenyl]-4-hydroxy-4-piperidyl]acetyl]piperazin-1-yl]-3-pyridyl]-3-[3-[[ethyl(methyl)sulfamoyl]amino]-2,6-difluoro-benzoyl]-1H-pyrrolo[2,3-b]pyridine] gave a DC50 of 5.84 nM. Also, the maximal effect (Emax) under setting [1] was 9.54%.
For the compound `CCN(C)S(=O)(=O)Nc1ccc(F)c(C(=O)c2c[nH]c3ncc(-c4ccc(N5CCN(C(=O)CC6(O)CCN(c7ccc(NC8CCC(=O)NC8=O)cc7)CC6)CC5)nc4)cc23)c1F` (stereo not shown) [Example 76, 5-[6-[4-[2-[1-[4-[(2,6-dioxo-3-piperidyl)amino]phenyl]-4-hydroxy-4-piperidyl]acetyl]piperazin-1-yl]-3-pyridyl]-3-[3-[[ethyl(methyl)sulfamoyl]amino]-2,6-difluoro-benzoyl]-1H-pyrrolo[2,3-b]pyridine], the half-maximal degradation concentration (DC50) was 7.81 nM. The Emax under setting [1] is 14.2%.
The like results for `O=C1CCC(Oc2ccc(C3CCN(CC(=O)N4CCN(c5ccc(-c6cnc7[nH]cc(C(=O)c8c(F)ccc(NS(=O)(=O)C9CCCCC9)c8F)c7c6)cn5)CC4)CC3)cc2)C(=O)N1` (stereo not shown) [Example A32, N-[3-[5-[6-[4-[2-[4-[4-(2,6-Dioxopiperidin-3-yl)oxyphenyl]piperidin-1-yl]acetyl]piperazin-1-yl]pyridin-3-yl]-1H-pyrrolo[2,3-b]pyridine-3-carbonyl]-2,4-difluorophenyl]cyclohexanesulfonamide] were, in that order, 39 nM and 15%.
As to `CCN(C)S(=O)(=O)Nc1ccc(F)c(C(=O)c2c[nH]c3ncc(-c4ccc(N5CCN(C(=O)CC6(O)CCN(c7cc(Cl)c(N8CCC(=O)NC8=O)cc7F)CC6)CC5)nc4)cc23)c1F` [Example 219, 5-[6-[4-[2-[1-[5-chloro-4-(2,4-dioxohexahydropyrimidin-1-yl)-2-fluoro-phenyl]-4-hydroxy-4-piperidyl]acetyl]piperazin-1-yl]-3-pyridyl]-3-[3-[[ethyl(methyl)sulfamoyl]amino]-2,6-difluoro-benzoyl]-1H-pyrrolo[2,3-b]pyridine], the DC50 is 1.65 nM. For the same compound, the maximal effect (Emax) under setting [1] came out at 6.11%.
For `CCN(C)S(=O)(=O)Nc1cccc(C(=O)c2c[nH]c3ncc(-c4cnc(N5CCN(C(=O)CC6(O)CCN(c7ccc(N8CCC(=O)NC8=O)cc7F)CC6)CC5)nc4)cc23)c1F` [Example 165, 5-[2-[4-[2-[1-[4-(2,4-dioxohexahydropyrimidin-1-yl)-2-fluoro-phenyl]-4-hydroxy-4-piperidyl]acetyl]piperazin-1-yl]pyrimidin-5-yl]-3-[3-[[ethyl(methyl)sulfamoyl]amino]-2-fluoro-benzoyl]-1H-pyrrolo[2,3-b]pyridine], in that order: 6.27 nM and 10.8%.
For `CCN(C)S(=O)(=O)Nc1ccc(F)c(C(=O)c2c[nH]c3ncc(-c4ccc(N5CCN(CCCC(=O)N6CCC(c7ccc(OC8CCC(=O)NC8=O)cc7)CC6)CC5)nc4)cc23)c1F` (stereo not shown) [Example A5, 5-[6-[4-[4-[4-[4-(2,6-Dioxopiperidin-3-yl)oxyphenyl]piperidin-1-yl]-4-oxobutyl]piperazin-1-yl]pyridin-3-yl]-3-[3-[[ethyl(methyl)sulfamoyl]amino]-2,6-difluorobenzoyl]-1H-pyrrolo[2,3-b]pyridine], in that order: 104 nM and 34%.
For `CCN(C)S(=O)(=O)Nc1ccc(F)c(C(=O)c2c[nH]c3ncc(-c4cnc(N5CCN(C(=O)CC6(O)CCN(c7ncc(NC8CCC(=O)NC8=O)cc7F)CC6)CC5)nc4)cc23)c1F` (stereo not shown) [Example 58, 5-[2-[4-[2-[1-[5-[(2,6-dioxo-3-piperidyl)amino]-3-fluoro-2-pyridyl]-4-hydroxy-4-piperidyl]acetyl]piperazin-1-yl]pyrimidin-5-yl]-3-[3-[[ethyl(methyl)sulfamoyl]amino]-2,6-difluoro-benzoyl]-1H-pyrrolo[2,3-b]pyridine], in that order: 4.25 nM and 9.42%.
The compound `CCN(C)S(=O)(=O)Nc1ccc(F)c(C(=O)c2c[nH]c3ncc(-c4ccc(N5CCN(C(=O)CN6CCC(c7ccc(O[C@@H]8CCC(=O)NC8=O)cc7)CC6)CC5)nc4)cc23)c1F` [Example A122, 5-[6-[4-[2-[4-[4-[(3R)-2,6-Dioxopiperidin-3-yl]oxyphenyl]piperidin-1-yl]acetyl]piperazin-1-yl]pyridin-3-yl]-3-[3-[[ethyl(methyl)sulfamoyl]amino]-2,6-difluorobenzoyl]-1H-pyrrolo[2,3-b]pyridine] gave a half-maximal degradation concentration (DC50) of 32 nM. In addition, the Emax under setting [1] is 9%.
The like results for `CCN(C)S(=O)(=O)Nc1ccc(F)c(C(=O)c2c[nH]c3ncc(-c4ccc(N5CCN(C(=O)CC6(O)CCN(c7ccc(NC8CCC(=O)NC8=O)cc7C(F)F)CC6)CC5)nc4)cc23)c1F` (stereo not shown) [Example 197, 5-[6-[4-[2-[1-[2-(difluoromethyl)-4-[(2,6-dioxo-3-piperidyl)amino]phenyl]-4-hydroxy-4-piperidyl]acetyl]piperazin-1-yl]-3-pyridyl]-3-[3-[[ethyl(methyl)sulfamoyl]amino]-2,6-difluoro-benzoyl]-1H-pyrrolo[2,3-b]pyridine] were, in that order, 7.36 nM and 8.11%.
As to `O=C1CCC(Nc2ccc(C3CCN(CC(=O)N4CCN(c5ccc(-c6cnc7[nH]cc(C(=O)c8c(F)ccc(NS(=O)(=O)N9CC[C@@H](F)C9)c8F)c7c6)cc5)CC4)CC3)cc2)C(=O)N1` (stereo partly drawn) [Example A75, (3R)—N-[3-[5-[4-[4-[2-[4-[4-[(2,6-Dioxopiperidin-3-yl)amino]phenyl]piperidin-1-yl]acetyl]piperazin-1-yl]phenyl]-1H-pyrrolo[2,3-b]pyridine-3-carbonyl]-2,4-difluorophenyl]-3-fluoropyrrolidine-1-sulfonamide], the half-maximal degradation concentration (DC50) worked out at 4.46 nM. Further, the Emax under setting [1] amounted to 16.2%.
For `CCN(C)S(=O)(=O)Nc1ccc(F)c(C(=O)c2c[nH]c3ncc(-c4ccc(N5CC6(CN(C(=O)CN7CCN(c8ccc(NC9CCC(=O)NC9=O)cc8)CC7)C6)C5)nc4)cc23)c1F` (stereo not shown) [Example A77, 5-[6-[2-[2-[4-[4-[(2,6-Dioxopiperidin-3-yl)amino]phenyl]piperazin-1-yl]acetyl]-2,6-diazaspiro[3.3]heptan-6-yl]pyridin-3-yl]-3-[3-[[ethyl(methyl)sulfamoyl]amino]-2,6-difluorobenzoyl]-1H-pyrrolo[2,3-b]pyridine], in that order: 47 nM and 31%.
For `CCN(C)S(=O)(=O)Nc1ccc(F)c(C(=O)c2c[nH]c3ncc(-c4ccc(N5C[C@H]6CC[C@@H](C5)N6C(=O)CN5CCC(c6ccc(NC7CCC(=O)NC7=O)cc6)CC5)nc4)cc23)c1F` (mixture of isomers) [Example A71, 3-[3-[[Ethyl(methyl)sulfamoyl]amino]-2,6-difluorobenzoyl]-5-[6-[rac-(1R,5S)-8-[2-[4-[4-[(2,6-dioxopiperidin-3-yl)amino]phenyl]piperidin-1-yl]acetyl]-3,8-diazabicyclo[3.2.1]octan-3-yl]pyridin-3-yl]-1H-pyrrolo[2,3-b]pyridine], in that order: 28 nM and 23%.

Source of the values: patent publication US12559492B2, “BRAF degraders” (C4 Therapeutics, Inc., priority 2020, dated 2026).
